Source: patent publication US10112949B2, “6,7-dihydropyrazolo[1,5-a]pyrazin-4(5H)-one compounds and their use as negative allosteric modulators of mGluR2 receptors” (Janssen Pharmaceutica NV, priority 2014, dated 2018)
Where two headings read alike, the source gives them in different places.

Key:
[1] = system: apomorphine-challenged rats; assay: Reversal of LY-404039-induced decrease of palpebral opening in apomorphine-challenged rats; format: in vivo, rat; settings: for ED50: rat, criterion cumulative palpebral opening score >26, read-out: ED50 APO LY-404039
Method: B) In Vivo Pharmacology 1) Reversal of LY-404039-Induced Decrease of Palpebral Opening in Apomorphine-Challenged Rats.
Male Wiga Wistar rats (Crl:WI; Charles River Germany; 220±40 g) were housed under standard laboratory conditions (21±2° C.; 50-65% relative humidity; light-dark cycle set at 12 h; lights on at 6.00 h) and fasted overnight prior to the start of the experiments (tap water remained available ad libitum). During the test period, they were housed in individual cages. Palpebral opening was scored every 5 min over the first hour after injection of apomorphine (1.0 mg/kg, i.v.) in animals either pretreated or not pretreated with LY-404039 (2.5 mg/kg, s.c.) at 1 h prior to the apomorphine injection. The animals were also pretreated with test compound or solvent at a predefined interval before apomorphine challenge. The score system was: (5) exophthalmos, (4) wide open, (3) open for three-quarters, (2) half open, (1) open for one-quarter, (0) closed. The scores for palpebral opening were cumulated over the 60-min observation period.

[2] = system: rats; assay: Reversal of the effect of the mGluR2 PAM JNJ-42153605-induced inhibition of scopolamine-induced hyperlocomotion; format: in vivo, rat; settings: for ED50: rat, route PO (route cell empty for Co. No. 22, 25, 18, 19, 29), criterion total distance >1500 cm, read-out: ED50 SCOP JNJ-42153605
Method: 2) Reversal of the Effect of the mGluR2 PAM JNJ-42153605-Induced Inhibition of Scopolamine-Induced Hyperlocomotion Apparatus
Motor activity was measured in microprocessor-based motor activity arenas (closed gray PVC cylinders with a height of 39 cm and a diameter of 31 cm). Each arena was placed on an infrared LED (8×8 LEDs) lit box (white PVC squared box; 40×40 cm^2; height 12.5 cm. An infrared-sensitive tube camera and a white light source were mounted to the ceiling above the observation chamber to track the animal. The total distance traveled (cm) was recorded and analyzed using the Noldus Ethovision XT Video Tracking System (Version 7.0.418; Noldus, Wageningen, The Netherlands). The intensity of the light within the activity cages (measured in the centre at the level of the floor) ranged between 4 and 8 LUX.
The rats were pretreated with test compound or vehicle at 60 min before the start of the activity recordings and placed into individual cages. The rats were challenged with JNJ-42153605 (3-(cyclopropylmethyl)-7-(4-phenylpiperidin-1-yl)-8-(trifluoromethyl)-[1,2,4]triazolo[4,3-a]pyridine; WO2010/130424; Cid et al. J. Med. Chem. 2012, 55, 8770-8789) (20 mg/kg, i.v.) 30 min before the start of the activity recording combined with scopolamine (0.16 mg/kg, i.v.) just before the start of the activity measurements. Immediately after the injection of scopolamine, the rats were placed into the activity monitors and total distance travelled over the first 30 min was measured.
Solvent-Pretreated Control Rats.
For reversal of the inhibitory effect of JNJ-42153605 on the scopolamine-induced hyperlocomotion, the following all-or-none criteria were adopted: (1) reversal: total distance >1500 cm.

[3] = target: human mGlu2 receptor (Homo sapiens, UniProt Q14416); assay: [35S]GTPγS binding assay, negative allosteric modulation of mGluR2; settings: for Emax: read-out: GTPγS - hmGluR2 anGT Emax;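 as to all read-outs here: membranes from CHO cells expressing the receptor, compound with glutamate near EC80 (60 µM), 30 min preincubation then 30 min label uptake at 30 °C, percent of control glutamate response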
Chain of human mGlu2 receptor (Q14416 19-872): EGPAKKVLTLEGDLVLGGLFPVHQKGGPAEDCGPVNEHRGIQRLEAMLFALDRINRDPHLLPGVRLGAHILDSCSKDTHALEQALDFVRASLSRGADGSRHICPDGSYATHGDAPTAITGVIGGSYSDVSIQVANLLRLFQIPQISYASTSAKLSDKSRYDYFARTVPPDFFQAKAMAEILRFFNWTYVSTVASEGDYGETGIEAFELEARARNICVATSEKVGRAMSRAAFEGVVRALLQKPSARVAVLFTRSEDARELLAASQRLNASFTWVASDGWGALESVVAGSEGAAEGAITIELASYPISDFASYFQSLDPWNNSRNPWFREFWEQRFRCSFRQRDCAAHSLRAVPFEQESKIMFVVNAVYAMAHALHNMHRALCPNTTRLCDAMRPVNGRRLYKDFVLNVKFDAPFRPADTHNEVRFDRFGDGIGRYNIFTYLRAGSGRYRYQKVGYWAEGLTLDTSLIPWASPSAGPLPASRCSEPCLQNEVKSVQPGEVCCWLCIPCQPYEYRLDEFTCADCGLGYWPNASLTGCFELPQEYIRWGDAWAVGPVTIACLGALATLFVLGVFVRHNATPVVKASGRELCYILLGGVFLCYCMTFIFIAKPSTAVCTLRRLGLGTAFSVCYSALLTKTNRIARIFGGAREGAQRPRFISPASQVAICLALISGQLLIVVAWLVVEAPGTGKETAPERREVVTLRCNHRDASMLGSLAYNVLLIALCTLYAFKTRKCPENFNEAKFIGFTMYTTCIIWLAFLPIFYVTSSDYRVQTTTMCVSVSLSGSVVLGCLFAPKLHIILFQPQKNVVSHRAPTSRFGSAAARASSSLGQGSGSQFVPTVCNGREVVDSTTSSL
Method: Here we describe the use of the [^35S]GTPγS binding assay using membranes from cells transfected with the human mGlu2 receptor and adapted from Schaffhauser et al. (Molecular Pharmacology, 2003, 4:798-810) for the detection of the negative allosteric modulation (NAM) properties of the compounds of this invention.
CHO-cells were cultured to pre-confluence and stimulated with 5 mM butyrate for 24 h. Cells were then collected by scraping in PBS and cell suspension was centrifuged (10 min at 4000 RPM in benchtop centrifuge). Supernatant was discarded and pellet gently resuspended in 50 mM Tris-HCl, pH 7.4 by mixing with an Ultra Turrax homogenizer. The suspension was centrifuged at 12,400 RPM (Sorvall F14S-6x250Y) for 10 minutes and the supernatant discarded. The pellet was homogenized in 5 mM Tris-HCl, pH 7.4 using an Ultra Turrax homogenizer and centrifuged again (13,000 RPM, 20 min, 4° C.). The final pellet was resuspended in 50 mM Tris-HCl, pH 7.4 and stored at −80° C. in appropriate aliquots before use. Protein concentration was determined by the Bradford method (Bio-Rad, USA) with bovine serum albumin as standard.
Measurement of mGluR2 negative allosteric modulatory activity of test compounds was performed as follows. Test compounds and glutamate were diluted in assay buffer containing 10 mM HEPES acid, 10 mM HEPES salt, pH 7.4, 100 mM NaCl, 3 mM MgCl2 and 10 μM GDP. Human mGlu2 receptor-containing membranes were thawed on ice and diluted in assay buffer supplemented with 18 μg/ml saponin. Membranes were pre-incubated with compound together with a predefined (˜EC80) concentration of glutamate (60 μM) for 30 min at 30° C. After addition of [^35S]GTPγS (f.c. 0.1 nM), assay mixtures were shaken briefly and further incubated to allow [^35S]GTPγS incorporation on activation (30 minutes, 30° C.). Final assay mixtures contained 7 μg of membrane protein in 10 mM HEPES acid, 10 mM HEPES salt, pH 7.4, 100 mM NaCl, 3 mM MgCl2, 10 μM GDP and 10 μg/ml saponin. Total reaction volume was 200 μl. Reactions were terminated by rapid filtration through Unifilter-96 GF/B plates (Perkin Elmer, Massachusetts, USA) using a 96-well filtermate universal harvester. Filters were washed 6 times with ice-cold 10 mM NaH2PO4/10 mM Na2HPO4, pH 7.4. Filters were then air-dried and 30 μl of liquid scintillation cocktail (Microscint-O) was added to each well. Membrane-bound radioactivity was counted in a Topcount.
Data were calculated as % of the control glutamate response, defined as the response that is generated upon addition of an EC80-equivalent concentration of glutamate. Sigmoid concentration-response curves plotting these percentages versus the log concentration of the test compound were analyzed using non-linear regression analysis. The concentration producing half-maximal inhibition was calculated as the IC50. The pIC50 values were calculated as the −log IC50, when the IC50 is expressed in M. Emax is defined as the relative maximal effect (i.e. maximal % inhibition relative to the control glutamate response).

[4] = Induction of mydriasis; settings: Wiga, in vivo, rat, route PO; for ED50: maximum pupil diameter >25 units over 1, 2 or 3 h post-administration, read-out: ED50 MYD Test 2
Method: 3) Induction of Mydriasis
The pupil diameter of Wiga rats was measured with a microscopic micrometer (1 unit= 1/24 mm). Criteria for drug-induced effects: pupil diameter >25 units for mydriasis (in controls: 1.9%) 1 h post-administration of the test compound (test 1) or 1, 2 or 3 h post-administration of the test compound (test 2, wherein the maximum pupil diameter over the full 3 h period is reported).

[5] = control rats, scores cumulated over 60 min
[6] = historical solvent-pretreated control rats, first 30 min

IC50 [3] | Emax [3] | Structure (SMILES) | further results
1.58 nM | 106% | C[C@H]1CN(c2ccc(C(F)(F)F)cc2)C(=O)c2c(C#Cc3ccc(N)nc3)cnn21 [compound 1] | ED50 [2]: 0.17 mg/kg; ED50 ([1]; route PO): 0.08 mg/kg; ED50 ([1]; route SC): 0.06 mg/kg; ED50 [4]: > 40 mg/kg; ED50 at 1 h ([4]; pupil diameter >25 units 1 h post-administration, read-out: ED50 MYD Test 1): > 10 mg/kg
4.07 nM | 105% | C[C@H]1CN(c2ccc(C(F)(F)F)cc2)C(=O)c2c(C#Cc3ccccc3)cnn21 [compound 5] | 
8.71 nM | 107% | Cc1cc(C#Cc2cnn3c2C(=O)N(c2ccc(C(F)(F)F)cc2)C[C@@H]3C)ccn1 [compound 9] | 
10 nM | 105% | C[C@H]1CN(c2ccc(C(F)(F)F)cc2)C(=O)c2c(C#Cc3ccnc(N)c3)cnn21 [compound 10] | 
10.2 nM | 103% | Cc1ccc(C#Cc2cnn3c2C(=O)N(c2ccc(C(F)(F)F)cc2)C[C@@H]3C)cn1 [compound 11] | 
14.8 nM | 105% | C[C@H]1CN(c2ccc(C(F)(F)F)cc2)C(=O)c2c(C#Cc3cccnc3N)cnn21 [compound 17] | 
24 nM | 102% | COCc1cc(C#Cc2cnn3c2C(=O)N(c2ccc(C(F)(F)F)cc2)C[C@@H]3C)cnc1N [compound 20] | 
41.7 nM | 102% | C[C@H]1CN(c2ccc(C(F)(F)F)cc2)C(=O)c2c(C#Cc3cnc(N)c(CF)c3)cnn21 [compound 21] | 
2.75 nM | 106% | C[C@H]1CN(c2ccc(C(F)(F)F)cc2)C(=O)c2c(C#Cc3cnc(N)cc3CF)cnn21 [compound 23] | 
15.8 nM | 99% | CNc1ncccc1C#Cc1cnn2c1C(=O)N(c1ccc(C(F)(F)F)cc1)C[C@@H]2C [compound 24] | 
2.24 nM | 105% | COCc1cc(N)ncc1C#Cc1cnn2c1C(=O)N(c1ccc(C(F)(F)F)cc1)C[C@@H]2C [compound 25] | ED50 [2]: 0.08 mg/kg
37.2 nM | 108% | C[C@H]1CN(c2ccc(C(F)(F)F)cc2)C(=O)c2c(C#Cc3cncc(CF)c3)cnn21 [compound 26] | 
97.7 nM | 106% | COCc1cncc(C#Cc2cnn3c2C(=O)N(c2ccc(C(F)(F)F)cc2)C[C@@H]3C)c1 [compound 27] | 
53.7 nM | 101% | C[C@H]1CN(c2ccc(C(F)(F)F)cc2)C(=O)c2c(C#Cc3cncc(CO)c3)cnn21 [compound 28] | 
2.95 nM | 106% | C[C@H]1CN(c2ccc(C(F)(F)F)cc2)C(=O)c2c(C#Cc3cnc(N)cc3CO)cnn21 [compound 29] | ED50 [2]: > 0.63 mg/kg

The remaining lines, values behind:

Structure (SMILES) | IC50 [3] | Emax [3] | further results
CN1CCc2cccc3c2[C@H]1Cc1ccc(O)c(O)c1-3 [Apomorphine alone, apomorphine] |  |  | Palpebral opening score, Median score ([1]; control rats, apomorphine 1.0 mg/kg i.v., LY-404039 2.5 mg/kg s.c., scores cumulated over 60 min): 43; Palpebral opening score, Occurrence score >26 (%) [1, 5]: 99.5%; Palpebral opening score, Occurrence score >34 (%) [1, 5]: 95.9%; Palpebral opening score, Occurrence score >34 (%) ([1]; control rats, scores cumulated over 60 min, listed as apomorphine alone): 95.5%
CN1[C@@H]2C[C@@H](OC(=O)[C@H](CO)c3ccccc3)C[C@H]1[C@@H]1O[C@@H]12 [Scopolamine, scopolamine, reference compound] |  |  | Total distance >1500 cm (%) [2, 6]: 100%; Total distance >4400 cm (%) [2, 6]: 95.8%; Total distance travelled, Median (cm) [2, 6]: 7246 cm
C[C@H]1CN(c2ccc(Cl)c(Cl)c2)C(=O)c2c(C#Cc3ccc(N)nc3)cnn21 [compound 2] | 1.12 nM | 105% | 
CNc1ccc(C#Cc2cnn3c2C(=O)N(c2ccc(Cl)c(Cl)c2)C[C@@H]3C)cn1 [compound 3] | 2.24 nM | 105% | 
C[C@H]1CN(c2ccc(C(F)(F)F)cn2)C(=O)c2c(C#Cc3ccc(N)nc3)cnn21 [compound 4] | 2.4 nM | 103% | 
COc1ccc(C#Cc2cnn3c2C(=O)N(c2ccc(Cl)c(Cl)c2)C[C@@H]3C)cn1 [compound 6] | 5.62 nM | 106% | 
C[C@H]1CN(c2ccc(Cl)c(Cl)c2)C(=O)c2c(C#Cc3ccc(F)nc3)cnn21 [compound 7] | 6.76 nM | 105% | 
COc1ccc(N2C[C@H](C)n3ncc(C#Cc4ccc(N)nc4)c3C2=O)cc1Cl [compound 8] | 8.51 nM | 107% | 
C[C@H]1CN(c2ccc(Cl)c(Cl)c2)C(=O)c2c(C#Cc3ccc(N(C)C)nc3)cnn21 [compound 12] | 33.1 nM | 107% | 
C[C@H]1CN(c2ccc(C(F)(F)F)c(Cl)c2)C(=O)c2c(C#Cc3ccc(N)nc3)cnn21 [compound 13] | 1.1 nM | 108% | ED50 [2]: 0.028 mg/kg; ED50 [4]: > 40 mg/kg
C[C@H]1CN(c2ccc(C(F)C(F)(F)F)cc2)C(=O)c2c(C#Cc3ccc(N)nc3)cnn21 (some centres unmarked) [compound 16] | 7.08 nM | 104% | 
C[C@H]1CN(c2ccc(C(F)(F)F)c(F)c2)C(=O)c2c(C#Cc3ccc(N)nc3)cnn21 [compound 18] | 2.69 nM | 107% | ED50 [2]: 0.13 mg/kg
C[C@H]1CN(c2ccc(C(F)(F)F)c(CF)n2)C(=O)c2c(C#Cc3ccc(N)nc3)cnn21 [compound 19] | 2.14 nM | 104% | ED50 [2]: > 0.63 mg/kg
C[C@H]1CN(c2ccc(C(F)(F)F)c(Cl)c2)C(=O)c2c(C#Cc3cnc(N)cc3CO)cnn21 [compound 22] | 0.832 nM | 106% | ED50 [2]: > 0.63 mg/kg
CNc1ccc(C#Cc2cnn3c2C(=O)N(c2ccc(C(F)(F)F)c(Cl)n2)C[C@@H]3C)cn1 [compound 31] | 8.71 nM | 111% | 
CNc1ccc(C#Cc2cnn3c2C(=O)N(c2ccc(C(F)(F)F)c(OC)n2)C[C@@H]3C)cn1 [compound 32] | 9.33 nM | 106% | 
COc1nc(N2C[C@H](C)n3ncc(C#Cc4ccc(N)nc4)c3C2=O)ccc1C(F)(F)F [compound 33] | 2.51 nM | 109% | 
C[C@H]1CN(c2ccc(C(F)(F)F)cc2)C(=O)c2c(C#Cc3cccc(S(=O)(=O)F)c3)cnn21 [compound 34] | 14.5 nM | 110% | 
C[C@H]1CN(c2ccc(C(F)(F)F)cc2)C(=O)c2c(C#Cc3ccc(S(=O)(=O)F)cc3)cnn21 [compound 35] | 42.7 nM | 108% | 
